From PMC3907559, “KDT501, a Derivative from Hops, Normalizes Glucose Metabolism and Body Weight in Rodent Models of Diabetes” (PLoS ONE, 2014) come the findings set out here.

One assay relates to THP-1 cells. As to the kind of experiment: LPS-stimulated inflammatory mediators in THP-1 cells. It is filed as cell-based, human. To be noted: 1 hour pre-incubation, LPS 1 µg/mL overnight, various concentrations (KDT501 6.25 to 50 µM). The protocol: THP-1 cells were maintained in RPMI1640 in the presence of 10% serum according to manufacturer's instructions as described earlier. The cells were pre-incubated with various concentrations of test compounds (KDT501, rosiglitazone, telmisartan, DHA or PGJ2) in the presence of 1% serum medium for 1 hour, then stimulated with TNF-α (10 ng/ml) or LPS (1 µg/ml) overnight (16–20 hours. Cytokines were assayed using a Milliplex MAP human cytokine/chemokine kit and Luminex 100™ IS. Data were analyzed using a five-parameter logistic method and represented as Mean ±SD of four independent samples.

Assay [1] deals with human subcutaneous adipocytes. As to the kind of experiment: Lipogenesis in human subcutaneous adipocytes (Oil Red O). It is filed as cell-based. The note with it: 10 days, relative to DMSO. The protocol:
(§1) Murine 3T3-L1 preadipocytes were maintained in DMEM supplemented with 10% FBS as described earlier. Cells were seeded at an initial density of approximately […] in 24-well plates. After confluence, cells were treated with KDT501 ([…]), rosiglitazone (10 µM), or DMSO on day 0. Cells were differentiated in differentiation medium consisting of 10% FBS/DMEM, 0.5 mM methylisobutylxanthine, 0.5 µM dexamethasone, and 10 µg/mL insulin. After two days, the medium was changed to progression medium consisting of 10 µg/mL insulin in 10% FBS/DMEM followed by 2 more days in maintenance medium consisting of 10% FBS/DMEM. KDT501 or rosiglitazone were included throughout the maturation phase (day 6/day 7). Human subcutaneous primary adipocytes were maintained as described for 3T3L1 adipocytes and treated with rosiglitazone (1 µM), KDT501 (10 µM), telmisartan (10 µM), DHA (10 µM) or PGJ2 (10 µM) for 10 days. Intracellular lipid was quantified with Oil O-Red staining using an adipogenesis assay kit from (Millipore, Billerica, MA). The medium was carefully discarded and washed twice with PBS. 300 µL Of Oil O-Red solution were added and incubated for 15 minutes at room temperature. The cells were washed, and bound dye was extracted and transferred to a 96 well plate. Absorbance was measured at 530 nm using a plate reader (Thermo Electron Corp.). Fold change relative to DMSO control was calculated from four independent wells for each condition. Data represent Mean ± SD.

Assay [2] deals with Zucker Diabetic Fatty (ZDF) rats. In words: ZDF rats, oral dosing twice daily (weight, HbA1c, glucose, OGTT). It is filed as in vivo, rat. As to the method: Male ZDF rats were obtained from Charles River Laboratories at approximately 7 weeks of age. Rats were maintained ad lib on Purina #5008 diet, delivering approximately 17% of calories from fat. Animals with fasting glucose between 150–350 mg/dL were randomized based on glucose and body weight. Test articles were prepared in 0.5% (w/v) methylcellulose + 0.2% (w/v) Tween 80 and given by oral gavage twice daily. Rats (10/group, 6 treatment groups) were administered KDT501 (100, 150, or 200 mg/kg), metformin (200 mg/kg), pioglitazone (30 mg/kg) or vehicle control for up to 32 days. Body weights and food intake were determined weekly. Blood was collected via tail bleed and whole blood glucose was measured on days 1, 8, 15 and 29. Blood was collected in 5 animals on days 15 and 29 for determination of glucose, insulin, lipids, hematocrit, and HbA1c. Animals were fasted overnight and OGTT was conducted on days 31 and 32 for determination of glucose and insulin levels. A second ZDF rat study was conducted and the resulting data on total cholesterol are presented. Statistical calculations were performed (JMP version, SAS Institute, Cary, NC). One-way ANOVA with Dunnett's test for post hoc determinations were used to compare vehicle treated control. Data were expressed as mean ± SEM.

Another assay deals with DIO mice. In words: DIO mice, oral dosing twice daily (body fat, OGTT). To be noted: for OGTT glucose AUC / OGTT insulin AUC: four weeks, vs controls. It is filed as in vivo, C57Bl6/J male mice. The protocol:
C57Bl6/J male mice were 15 weeks old at the start of the experiment. In general, DIO models are initiated at an early age to evaluate effects on obesity. However, older, overweight mice were used in this study to represent middle-aged human subjects for the assessment of metabolic parameters associated with weight loss/diabetes. The mice were housed individually in cages at 72±4°F with a relative humidity of 30–70% with 12 hour light- dark cycle. High fat diet (40% Cal) TD95217 (Teklad Custom Research Diet) was used in this study. The test compounds were administered orally twice per day at 12 hour intervals (10 mL/kg) in 0.5% methylcellulose and 0.2% Tween 80 (w/v). Mice were randomly allocated on the basis of body weight to seven groups (N = 10/group), with five animals for the oral glucose tolerance test (OGTT) and 5 animals for the insulin tolerance test. […] Body weight and food consumption were determined weekly. After 30 days, the mice were fasted overnight, blood was drawn through the tail vein and baseline blood glucose was measured using a glucose analyzer. One hour later, mice were given an oral gavage of glucose solution in water (4 ml/kg, 2 g/kg) and blood samples were taken at 15, 30, 60, and 120 min to determine plasma glucose and insulin levels. Five days before the start of the experiment (t = −5 days) and again at the end of the experiment (t = 28 days), body fat was determined using QNMR. With the exception of the group treated with 200 mg/kg KDT501, 10 animals/group were used in the determinations. Insulin and HbA1c glucose levels were determined on days 1, 15 and 29. Statistical calculations were performed (JMP version, SAS Institute, Cary, NC). One-way ANOVA with Dunnett's test for post hoc determinations were used to compare vehicle treated control. Data were expressed as mean ± SEM.

Another assay concerns ZDF rats. As to the kind of experiment: Second ZDF rat study (total cholesterol, triglycerides in plasma). It is filed as in vivo. The note with it: twice daily oral. The protocol:
Blood was collected via tail bleed and whole blood glucose was measured on days 1, 8, 15 and 29. Blood was collected in 5 animals on days 15 and 29 for determination of glucose, insulin, lipids, hematocrit, and HbA1c. Animals were fasted overnight and OGTT was conducted on days 31 and 32 for determination of glucose and insulin levels. A second ZDF rat study was conducted and the resulting data on total cholesterol are presented. Statistical calculations were performed (JMP version, SAS Institute, Cary, NC). One-way ANOVA with Dunnett's test for post hoc determinations were used to compare vehicle treated control. Data were expressed as mean ± SEM.

Assay [3] relates to human subcutaneous adipocytes. As to the kind of experiment: Gene expression profile and gene ontology in human subcutaneous adipocytes. It is filed as cell-based. To be noted: 5 days. The protocol: Human subcutaneous primary adipocytes were maintained as described earlier. Cells were seeded at an initial density of approximately 2×10^6 cells in 6-well plates with PGM-2 medium (2 mL medium/well) and allowed to grow for 24 hr to confluence. Cells were treated with test compounds KDT501 (25 µM), rosiglitazone (1 µM), telmisartan (10 µM), or DMSO in adipocyte differentiating medium. The differentiation medium consisted of indomethacin, methylisobutylxanthine, dexamethasone, and insulin from PGM-2 single aliquots. After 5 days, the cells were washed in PBS, frozen in liquid nitrogen and shipped to Expression Analysis (Durham, NC) in dry ice. Three independent plates were used for each condition. RNA was extracted using the miRNeasy Mini Kit (Qiagen) as described by the manufacturer. RNA was isolated and expression profiling was performed using the Ambion WT Expression Kit (Life Technologies). Labeled target, which was hybridized to GeneChip Human Gene 1.0 ST Arrays (Affymetrix), was prepared essentially as described by the manufacturer. This cDNA was then used as a template for in vitro transcription using T7 RNA Polymerase to produce anti-sense RNA, which was then converted into single-stranded sense cDNA that was fragmented and labeled with biotin prior to hybridization to the GeneChip Arrays. […]

Another assay has as its system RAW264.7 cells. As to the kind of experiment: LPS-activated PGE2 and NO in RAW264.7 cells. It is filed as cell-based. To be noted: results not shown.
Another assay deals with 3T3L1 adipocytes. As to the kind of experiment: Lipogenesis in 3T3L1 adipocytes (Oil Red O). It is filed as cell-based, murine. The note with it: 10 µM, 6 days, relative to DMSO. As to the method: as §1, with “The cells were washed, and bound dye was extracted and transferred to a 96 well plate.” left out, “Data represent Mean ± SD.” left out
The target in another assay is T1, PPARγ (Homo sapiens, UniProt P37231).
T1 sequence (P37231 1-505): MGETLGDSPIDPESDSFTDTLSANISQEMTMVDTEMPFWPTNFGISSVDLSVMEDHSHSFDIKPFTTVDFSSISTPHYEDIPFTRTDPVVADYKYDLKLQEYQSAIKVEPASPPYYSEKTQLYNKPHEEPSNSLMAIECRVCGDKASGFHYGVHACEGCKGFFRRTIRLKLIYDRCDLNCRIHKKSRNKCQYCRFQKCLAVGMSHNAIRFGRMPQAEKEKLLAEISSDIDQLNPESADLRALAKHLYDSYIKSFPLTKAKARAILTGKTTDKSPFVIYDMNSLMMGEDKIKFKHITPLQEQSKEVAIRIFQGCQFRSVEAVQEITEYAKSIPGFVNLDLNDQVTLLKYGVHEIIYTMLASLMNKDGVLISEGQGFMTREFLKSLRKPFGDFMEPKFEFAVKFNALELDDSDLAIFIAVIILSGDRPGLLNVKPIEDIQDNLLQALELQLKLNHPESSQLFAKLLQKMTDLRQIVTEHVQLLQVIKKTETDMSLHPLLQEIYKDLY
In words: PPARγ reporter assay (Indigo Biosciences). It is filed as cell-based. As to the method:
PPAR assay kits from Indigo Biosciences and supplemented protocols were used in this study. Briefly, the reporter cells were treated in triplicates with various concentrations of KDT501 (25–0.78 µM). Telmisartan (10–0.625 µM), GW590735 (10–0.03 µM), and GW0742 (1–0.01 µM) were used as positive controls for PPARγ, PPARα and PPARδ respectively. […]. Cells were incubated for 20 hours as per the protocol and read using a luminometer (Victor2, Perkin Elmer). Average relative light unit (RLU) values from blank wells were subtracted from all the samples. The final data were compared with DMSO control and statistical analyses were performed using GraphPad Prism.
Background: A reporter such as luciferase makes a cellular process visible.

Each structure is given as a SMILES string.

As to `CC/C=C\C/C=C\C/C=C\C/C=C\C/C=C\C/C=C\CCC(=O)O` [DHA], in the assay with THP-1 cells, the “LPS stimulated IL-6” value is given as “inhibited these cytokines in a concentration-dependent manner”, the “LPS stimulated MCP-1” value is “inhibited these cytokines in a concentration-dependent manner” and the “LPS stimulated RANTES” value is recorded as “inhibited these cytokines in a concentration-dependent manner”. Also, the “lipogenesis, fold increase” value in [1] (10 µM) is recorded as “No significant changes”.
As to `CCCCC/C=C/C=C1/C(=O)C=C[C@@H]1C/C=C\CCCC(=O)O` [PGJ2, 5-deoxy-Δ12,14-PGJ2], in the assay with THP-1 cells, the “LPS stimulated IL-6” value is “inhibited these cytokines in a concentration-dependent manner”, the “LPS stimulated MCP-1” value is reported as “inhibited these cytokines in a concentration-dependent manner” and the “LPS stimulated RANTES” value is given as “inhibited these cytokines in a concentration-dependent manner”. In addition, the “lipogenesis, fold increase” value in [1] (10 µM) is recorded as 8.8 fold.
In the case of `CN(C)C(=N)N=C(N)N` [metformin], in assay [2] (200 mg/kg twice daily oral (metformin group)), the body weight entry is given as “gained weight”. Besides, in the assay on DIO mice (200 mg/kg twice per day oral), the “OGTT glucose AUC” value is given as “significantly reduced” and the “OGTT insulin AUC” value is recorded as “significantly reduced”. Further, the “fat mass by the end of the study (QNMR)” value with DIO mice (200 mg/kg twice per day oral, vs vehicle) was “Significant reduction”. The “total cholesterol in plasma” value in the assay on ZDF rats (metformin group) is recorded as “neither metformin nor pioglitazone had this effect”.
Turning to `CCc1ccc(CCOc2ccc(CC3SC(=O)NC3=O)cc2)nc1` (centres unmarked) [pioglitazone], in assay [2] (30 mg/kg twice daily oral), the “HbA1c at the end of the study” value is “approximately half that of the vehicle-treated control” and the body weight result is on record as “gained weight”. Besides, in the assay on DIO mice (30 mg/kg twice per day oral), the “OGTT glucose AUC” value is listed as “significantly reduced” and the “OGTT insulin AUC” value is “significantly reduced”. Also, the “total cholesterol in plasma” value in the assay with ZDF rats (pioglitazone group) is “neither metformin nor pioglitazone had this effect”. For the same molecule, in the assay on ZDF rats (pioglitazone group, day 15 and day 30), the triglycerides in plasma entry is listed as “reduced triglycerides”.
In the case of `CN(CCOc1ccc(CC2SC(=O)NC2=O)cc1)c1ccccn1` (centres unmarked) [rosiglitazone], in assay [3] (1 µM), the “number of transcripts stimulated at least 2-fold” value was 62. In addition, in the assay with THP-1 cells, the “LPS stimulated IL-6” value is recorded as “did not significantly affect”, the “LPS stimulated MCP-1” value is “did not significantly affect” and the “LPS stimulated RANTES” value is recorded as “did not significantly affect”. Besides, the “lipogenesis, fold increase” value in assay [1] (1 µM) is 10.3 fold. Moreover, the “induction of LPS-activated PGE2” value in the assay with RAW264.7 cells is on record as “not with rosiglitazone”. Moreover, the “lipogenesis, fold increase” value in the assay on 3T3L1 adipocytes is on record as “about 2.8 fold”.
A word on the EC50: it is the concentration giving half of the maximal effect. Higher therefore signals lower potency in that assay. For `CCCc1nc2c(C)cc(-c3nc4ccccc4n3C)cc2n1Cc1ccc(-c2ccccc2C(=O)O)cc1` [telmisartan], the “number of transcripts changed” value in assay [3] (10 µM, 5 up and 3 down, common to rosiglitazone and KDT501) came out at 8. In addition, in the assay with THP-1 cells, the “LPS stimulated IL-6” value is “inhibited these cytokines in a concentration-dependent manner”, the “LPS stimulated MCP-1” value was “inhibited these cytokines in a concentration-dependent manner” and the “LPS stimulated RANTES” value is reported as “inhibited these cytokines in a concentration-dependent manner”. Besides, in [1] (10 µM), the “lipogenesis, fold increase” value is 3.5 fold. The molecule further came in with an EC50 on PPARγ of 13.4 µM.
